Results: US20180305334A1, “COMPOUNDS, COMPOSITIONS AND METHODS OF USE AGAINST STRESS GRANULES” (Aquinnah Pharmaceuticals, Inc., priority 2015, published 2018)

The compounds below were run on TDP-43 aggregation in PC12 cells stably expressing TDP-43^Q331K::eGFP (assay: In vitro efficacy assay, TDP-43 aggregation concentration-response). Details: Rattus norvegicus, PC-12, inhibition of TDP-43 aggregation; PC12 TDP-43^Q331K::eGFP, 1 hour pre-treatment, 15 μM sodium arsenite for 23 hours; 10-point dose response.
Type: cell-based
Experimental: Exemplary compounds of the invention were evaluated for efficacy in inhibiting TDP-43 inclusions using a concentration-response assay. Briefly, PC12 cells stably expressing a GFP-tagged mutant form of TDP-43 (TDP-43^Q331K::eGFP) were pre-treated for 1 hour with exemplary compounds and stressed with 15 μM sodium arsenite for 23 hours to induce TDP-43 aggregation. The inhibitory effect on TDP-43 aggregation was measured using fluorescence microscopy. The ratio of cells with TDP-43 aggregates was calculated based on the total number of cells with detectable GFP expression.

| SMILES | IC50 |
| --- | --- |
| CN(CC1CCN(Cc2cccc(F)c2)CC1)C(=O)c1cc2ccccc2[nH]1 [compound 255] | > 10 µM |
| COc1ccc(S(=O)(=O)N2CCC(CNC(=O)c3cc4ccccc4[nH]3)CC2)cc1 [Compound 325] | > 10 µM |
| CCN(CC1CCCNC1)C(=O)c1cc2cc(F)ccc2[nH]1 (centres unmarked) [compound 414] | > 10 µM |
| CCN(CC1CCCN(Cc2ccc(OC)cc2)C1)C(=O)c1cc2c(Cl)cc(Cl)cc2[nH]1 (centres unmarked) [Compound 154] | 1.5 to 4 µM |
| CCN(CC1CCCN(Cc2ccc(OC)cc2)C1)C(=O)c1cc2ccc(C)cc2[nH]1 (centres unmarked) [Compound 156] | 1.5 to 4 µM |
| CCN(CC1CCNCC1)C(=O)c1cc2ccccc2[nH]1 [Compound 250] | < 1.5 µM |
| COc1ccc(CN2CCC(CN(C(=O)c3cc4ccccc4[nH]3)C(C)C)CC2)cc1 [compound 265] | < 1.5 µM |
| COc1cccc(CCN2CCCC(CN(C(=O)c3cc4ccccc4[nH]3)C(C)C)C2)c1 (centres unmarked) [Compound 143] | < 1.5 µM |
| CCN(CC1CCCN(C2CCc3ccccc3C2)C1)C(=O)c1cc2ccccc2[nH]1 (centres unmarked) [Compound 208] | 4 to 7 µM |
| COc1ccccc1CN1CCC(CN(C(=O)c2cc3ccccc3[nH]2)C(C)C)CC1 [compound 282] | > 10 µM |
| CCN(CC1CCCN(C(=O)Cc2ccc(OC)cc2)C1)C(=O)c1cc2ccccc2[nH]1 (centres unmarked) [Compound 201] | < 1.5 µM |
| O=C(NCC1CCN(Cc2ccccc2F)CC1)c1cc2ccccc2[nH]1 [compound 272] | > 10 µM |
| CCN(CC1CCN(C(C)(C)Cc2ccccc2)CC1)C(=O)c1cc2ccccc2[nH]1 [Compound 333] | > 10 µM |
| CCN(CC1CCCN(CCc2cccc(OC(F)(F)F)c2)C1)C(=O)c1cc2cc(OC(F)(F)F)ccc2[nH]1 (centres unmarked) [Compound 179] | 4 to 7 µM |
| COc1cccc(CCN2CCCC(CN(C)C(=O)c3cc4ccccc4[nH]3)C2)c1 (centres unmarked) [Compound 217] | < 1.5 µM |
| CN(CC1CCN(Cc2ccccc2)CC1)C(=O)c1cc2ccccc2[nH]1 [compound 263] | > 10 µM |
| CCN(CC1CCN(C2(Cc3cccc(OC)c3)CC2)CC1)C(=O)c1cc2ccccc2[nH]1 [Compound 360] | < 1.5 µM |
| CCN(CC1CCNCC1)C(=O)c1cc2cc(OC)ccc2[nH]1 [compound 400] | > 10 µM |
| CCN(CC1CCCN(CCc2ccc(F)cc2)C1)C(=O)c1cc2ccccc2[nH]1 (centres unmarked) [Compound 126] | > 10 µM |
| CCN(CC1CCCN(CCc2ccccc2Cl)C1)C(=O)c1cc2ccccc2[nH]1 (centres unmarked) [Compound 139] | 1.5 to 4 µM |
| O=C(NCC1CCN(Cc2ccccc2Cl)CC1)c1cc2ccccc2[nH]1 [compound 293] | > 10 µM |
| CCN(CC1CCCN(CCc2ccc3c(c2)OCC3)C1)C(=O)c1cc2ccccc2[nH]1 (centres unmarked) [Compound 145] | 1.5 to 4 µM |
| CCN(CC1CCCNC1)C(=O)c1cc2c(OC)cccc2[nH]1 (centres unmarked) [compound 422] | > 10 µM |
| CN(CC1CCN(Cc2cccc(Cl)c2)CC1)C(=O)c1cc2ccccc2[nH]1 [compound 256] | > 10 µM |

| SMILES | IC50 |
| --- | --- |
| CC(C)N(CC1CCN(Cc2ccccc2)CC1)C(=O)c1cc2ccccc2[nH]1 [compound 285] | 1.5 to 4 µM |
| CCN(CC1CCCN(Cc2ccc(Cl)cc2)C1)C(=O)c1cc2c(F)cc(F)cc2[nH]1 (centres unmarked) [Compound 169] | < 1.5 µM |
| CCN(CC1CCN(Cc2ccc(OC)cc2)CC1)C(=O)c1cc2ccccc2[nH]1 [compound 288] | < 1.5 µM |
| CCN(CC1CCN(Cc2ccccc2OC)CC1)C(=O)c1cc2ccccc2[nH]1 [compound 287] | 4 to 7 µM |
| CCN(CC1CCCN(Cc2ccc(Cl)cc2)C1)C(=O)c1cc2cc(OC)ccc2[nH]1 (centres unmarked) [Compound 148] | < 1.5 µM |
| CCN(CC1CCCN(Cc2ccccc2Cl)C1)C(=O)c1cc2ccccc2[nH]1 (centres unmarked) [Compound 129] | > 10 µM |
| CCN(CC1CCCCN1CCc1cccc(OC)c1)C(=O)c1cc2ccccc2[nH]1 (centres unmarked) [Compound 224] | 1.5 to 4 µM |
| CCN(CC1CCCN(Cc2ccc(OC)cc2)C1)C(=O)c1cc2cc(Cl)ccc2[nH]1 (centres unmarked) [Compound 161] | < 1.5 µM |
| COc1cccc(CCN2CCCC(CNC(=O)c3cc4ccccc4[nH]3)C2)c1 (centres unmarked) [Compound 125] | < 1.5 µM |
| O=C(NCC1CCNCC1)c1cc2ccccc2[nH]1 [Compound 264] | 1.5 to 4 µM |
| CCN(CC1CCCN(CCc2ccc(C#N)cc2)C1)C(=O)c1cc2ccccc2[nH]1 (centres unmarked) [Compound 142] | > 10 µM |
| COc1ccc(CN2CCC(CN(C)C(=O)c3cc4ccccc4[nH]3)CC2)cc1 [compound 261] | 1.5 to 4 µM |
| COc1ccc(CC(=O)N2CCC(CNC(=O)c3cc4ccccc4[nH]3)CC2)cc1 [Compound 323] | < 1.5 µM |
| COc1cccc(CCN2CCCC(CN(CC3CCCCC3)C(=O)c3cc4ccccc4[nH]3)C2)c1 (centres unmarked) [Compound 220] | > 10 µM |
| COc1cccc(CCN2CCCC(CN(C(=O)c3cc4ccccc4[nH]3)C3CCCCC3)C2)c1 (centres unmarked) [Compound 219] | < 1.5 µM |
| CCN(CC1CCCN(Cc2ccc(C(=O)OC)cc2)C1)C(=O)c1cc2ccccc2[nH]1 (centres unmarked) [Compound 212] | > 10 µM |
| CCN(CC1CCN(C2CCc3ccc(OC)cc3C2)CC1)C(=O)c1cc2ccccc2[nH]1 (centres unmarked) [Compound 329] | < 1.5 µM |
| CCN(CC1CCN(C(C)(C)Cc2cccc(F)c2F)CC1)C(=O)c1cc2ccccc2[nH]1 [Compound 342] | > 10 µM |
| CCN(CC1CCCN(Cc2ccc(-c3nnn[nH]3)cc2)C1)C(=O)c1cc2ccccc2[nH]1 (centres unmarked) [Compound 225] | > 10 µM |
| CCN(CC1CCN(C2CCc3ccccc32)CC1)C(=O)c1cc2ccccc2[nH]1 (centres unmarked) [Compound 328] | 4 to 7 µM |
| CCN(CC1CCCNC1)C(=O)c1cc2cc(OC(F)F)ccc2[nH]1 (centres unmarked) [compound 425] | > 10 µM |
| CCN(CC1CCCN(Cc2cc3ccccc3o2)C1)C(=O)c1cc2c(OC)cccc2[nH]1 (centres unmarked) [Compound 204] | < 1.5 µM |
| CCN(CC1CCCN(Cc2ccccc2)C1)C(=O)c1cc2ccccc2[nH]1 (centres unmarked) [Compound 132] | 1.5 to 4 µM |
| CC(C)N(CC1CCN(Cc2cccc(F)c2)CC1)C(=O)c1cc2ccccc2[nH]1 [compound 277] | > 10 µM |

| SMILES | IC50 |
| --- | --- |
| CCN(CC1CCCN(CCc2ccc3c(c2)OCO3)C1)C(=O)c1cc2ccccc2[nH]1 (centres unmarked) [Compound 146] | 1.5 to 4 µM |
| COc1ccc(C(=O)N2CCC(CNC(=O)c3cc4ccccc4[nH]3)CC2)cc1 [Compound 321] | < 1.5 µM |
| CCN(CC1CCCN(Cc2ccc(OC)cc2)C1)C(=O)c1cc2cc(F)c(F)cc2[nH]1 (centres unmarked) [Compound 171] | < 1.5 µM |
| CCN(CC1CCCNC1)C(=O)c1cc2cccc(F)c2[nH]1 (centres unmarked) [compound 418] | > 10 µM |
| CC(C)N(CC1CCN(Cc2ccc(Cl)cc2)CC1)C(=O)c1cc2ccccc2[nH]1 [compound 283] | > 10 µM |
| CCN(CC1CCCN(Cc2cc3ccccc3o2)C1)C(=O)c1cc2cc(OC)ccc2[nH]1 (centres unmarked) [Compound 203] | 1.5 to 4 µM |
| CCN(CC1CCCN(CC(C)(C)c2cccc(OC(F)(F)F)c2)C1)C(=O)c1cc2cc(OC(F)(F)F)ccc2[nH]1 (centres unmarked) [Compound 407] | > 10 µM |
| CCN(CC1CCCN(Cc2cccc(C#N)c2)C1)C(=O)c1cc2ccccc2[nH]1 (centres unmarked) [Compound 133] | 1.5 to 4 µM |
| CCN(CC1CCCN(Cc2ccc(OC)cc2)C1)C(=O)c1cc2ccccc2[nH]1 (centres unmarked) [Compound 137] | 1.5 to 4 µM |
| CCN(CC1CCN(Cc2cccc(F)c2)CC1)C(=O)c1cc2ccccc2[nH]1 [Compound 252] | > 10 µM |
| CCN(CC1CCNCC1)C(=O)c1cc2cc(OC(F)(F)F)ccc2[nH]1 [compound 401] | 4 to 7 µM |
| COc1ccccc1CN1CCC(CN(C)C(=O)c2cc3ccccc3[nH]2)CC1 [compound 260] | 4 to 7 µM |
| COc1cccc(CN2CCC(CNC(=O)c3cc4ccccc4[nH]3)CC2)c1 [compound 292] | > 10 µM |
| CC(C)N(CC1CCN(Cc2ccccc2Cl)CC1)C(=O)c1cc2ccccc2[nH]1 [compound 281] | > 10 µM |
| CCN(CC1CCN(C(C)(C)Cc2ccc(OC)cc2)CC1)C(=O)c1cc2ccccc2[nH]1 [Compound 344] | > 10 µM |
| CCN(CC1CCCN(CCc2cccc(OC)c2)C1)C(=O)c1nc2ccccc2o1 (centres unmarked) [Compound 241] | > 10 µM |
| CCN(CC1CCCN(Cc2ccc(Cl)cc2)C1)C(=O)c1cc2ccc(C)cc2[nH]1 (centres unmarked) [Compound 155] | 1.5 to 4 µM |
| CCN(CC1CCN(CC(F)(F)c2cccc(F)c2)CC1)C(=O)c1cc2ccccc2[nH]1 [Compound 410] | 1.5 to 4 µM |
| CCN(CC1CCCN(Cc2ccc(Cl)cc2)C1)C(=O)c1cc2c(F)cccc2[nH]1 (centres unmarked) [Compound 165] | 1.5 to 4 µM |
| CCN(CC1CCCN(CCc2cccc(OC)c2)C1)C(=O)c1nc2ccccc2n1C (centres unmarked) [Compound 240] | > 10 µM |
| CCN(CC1CCCN(CCc2cccc(OC)c2)C1)C(=O)c1coc2ccccc12 (centres unmarked) [Compound 233] | < 1.5 µM |
| CCN(CC1CCN(Cc2cccc(Cl)c2)CC1)C(=O)c1cc2ccccc2[nH]1 [compound 266] | 4 to 7 µM |
| CCN(CC1CCCN(CCc2cccc(Cl)c2)C1)C(=O)c1cc2ccccc2[nH]1 (centres unmarked) [Compound 141] | < 1.5 µM |
| COc1cccc(CN2CCC(CN(C(=O)c3cc4ccccc4[nH]3)C(C)C)CC2)c1 [compound 279] | > 10 µM |

Same assay, conditions: inhibition of TDP-43 aggregation; PC12 TDP-43^Q331K::eGFP, 1 hour pre-treatment, 15 μM sodium arsenite for 23 hours; 10-point dose response

| SMILES | IC50 |
| --- | --- |
| CCN(CC1CCCN(C(C)(C)Cc2cccc(OC(F)(F)F)c2)C1)C(=O)c1cc2cc(OC(F)(F)F)ccc2[nH]1 (centres unmarked) [compound 316] | 4 to 7 µM |
| CCN(CC1CCCN(C(C)(C)c2cc3ccccc3o2)C1)C(=O)c1cc2ccccc2[nH]1 (centres unmarked) [Compound 338] | < 1.5 µM |
| CCN(CC1CCCN(C(C)(C)Cc2cccc(OC)c2)C1)C(=O)c1cc2cc(OC)ccc2[nH]1 (centres unmarked) [Compound 334] | < 1.5 µM |
| CCN(CC1CCCN(C(C)(C)Cc2cccc(OC)c2)C1)C(=O)c1cc2ccccc2[nH]1 (centres unmarked) [Compound 331] | 1.5 to 4 µM |
| CCN(CC1CCCN(Cc2ccc(Cl)cc2)C1)C(=O)c1cc2ccc(Cl)cc2[nH]1 (centres unmarked) [Compound 167] | < 1.5 µM |
